Laboratory results published in US5541193A, “Heterocycle-containing macrocyclic immunomodulators” (Abbott Laboratories, priority 1995, dated 1996).

The compounds below were run on human mixed lymphocyte reaction (MLR) (assay: human mixed lymphocyte reaction (MLR) assay, immunosuppressant activity). Conditions: Table 1.
Format: cell-based
Protocol: […] Assay of Biological Activity
The immunosuppressant activity of the compounds of the present invention was determined using the human mixed lymphocyte reaction (MLR) assay described by Kino, T. et al. in Transplantation Proceedings, XIX(5):36-39,Suppl. 6 (1987).

Row | Compound | IC50
1 | CC[C@@H]1/C=C(\C)C[C@H](C)C[C@H](OC)[C@H]2O[C@@](O)(C(=O)C(=O)N3CCCC[C@H]3C(=O)O[C@H](/C(C)=C/[C@@H]3CCC(OC)C(n4nnc5ccc([N+](=O)[O-])cc54)C3)[C@H](C)[C@@H](O)CC1=O)[C@H](C)C[C@@H]2OC (some centres unmarked) [Example 12] | 0.94 nM
2 | CC[C@@H]1/C=C(\C)C[C@H](C)C[C@H](OC)[C@H]2O[C@@](O)(C(=O)C(=O)N3CCCC[C@H]3C(=O)O[C@H](/C(C)=C/[C@@H]3CCC(OC)C(n4nnc5ccccc54)C3)[C@H](C)[C@@H](O)CC1=O)[C@H](C)C[C@@H]2OC (some centres unmarked) [Example 8] | 1.76 nM
3 | CC[C@@H]1/C=C(\C)C[C@H](C)C[C@H](OC)[C@H]2O[C@@](O)(C(=O)C(=O)N3CCCC[C@H]3C(=O)O[C@H](/C(C)=C/[C@@H]3CC[C@H](n4cncn4)[C@H](OC)C3)[C@H](C)[C@@H](O)CC1=O)[C@H](C)C[C@@H]2OC [Example 13] | 0.62 nM
4 | CC[C@@H]1/C=C(\C)C[C@H](C)C[C@H](OC)[C@H]2O[C@@](O)(C(=O)C(=O)N3CCCC[C@H]3C(=O)O[C@H](/C(C)=C/[C@@H]3CCC(OC)C(n4nnc5cc([N+](=O)[O-])ccc54)C3)[C@H](C)[C@@H](O)CC1=O)[C@H](C)C[C@@H]2OC (some centres unmarked) [Example 11] | 1.56 nM
5 | CC[C@@H]1/C=C(\C)C[C@H](C)C[C@H](OC)[C@H]2O[C@@](O)(C(=O)C(=O)N3CCCC[C@H]3C(=O)O[C@H](/C(C)=C/[C@@H]3CC[C@H](n4ccnn4)[C@H](OC)C3)[C@H](C)[C@@H](O)CC1=O)[C@H](C)C[C@@H]2OC [Example 5] | 2.48 nM
6 | CC[C@@H]1/C=C(\C)C[C@H](C)C[C@H](OC)[C@H]2O[C@@](O)(C(=O)C(=O)N3CCCC[C@H]3C(=O)O[C@H](/C(C)=C/[C@@H]3CCC(OC)C(n4cnc([N+](=O)[O-])n4)C3)[C@H](C)[C@@H](O)CC1=O)[C@H](C)C[C@@H]2OC (some centres unmarked) [Example 16] | 1 nM

These reach a lower IC50. Values come first.

Row | IC50 | Compound
7 | 0.44 nM | CC[C@@H]1/C=C(\C)C[C@H](C)C[C@H](OC)[C@H]2O[C@@](O)(C(=O)C(=O)N3CCCC[C@H]3C(=O)O[C@H](/C(C)=C/[C@@H]3CCC(OC)C(n4ccnn4)C3)[C@H](C)[C@@H](O)CC1=O)[C@H](C)C[C@@H]2OC (some centres unmarked) [Example 6]
8 | 0.04 nM | CC[C@@H]1/C=C(\C)C[C@H](C)C[C@H](OC)[C@H]2O[C@@](O)(C(=O)C(=O)N3CCCC[C@H]3C(=O)O[C@H](/C(C)=C/[C@@H]3CC[C@H](n4cnc([N+](=O)[O-])n4)[C@H](OC)C3)[C@H](C)[C@@H](O)CC1=O)[C@H](C)C[C@@H]2OC [Example 15]
9 | 0.22 nM | CC[C@@H]1/C=C(\C)C[C@H](C)C[C@H](OC)[C@H]2O[C@@](O)(C(=O)C(=O)N3CCCC[C@H]3C(=O)O[C@H](/C(C)=C/[C@@H]3CC[C@H](n4nnc5ccc([N+](=O)[O-])cc54)[C@H](OC)C3)[C@H](C)[C@@H](O)CC1=O)[C@H](C)C[C@@H]2OC [Example 10]
10 | 0.21 nM | CC[C@@H]1/C=C(\C)C[C@H](C)C[C@H](OC)[C@H]2O[C@@](O)(C(=O)C(=O)N3CCCC[C@H]3C(=O)O[C@H](/C(C)=C/[C@@H]3CC[C@H](n4nnc5ccccc54)[C@H](OC)C3)[C@H](C)[C@@H](O)CC1=O)[C@H](C)C[C@@H]2OC [Example 7]
11 | 0.23 nM | CC[C@@H]1/C=C(\C)C[C@H](C)C[C@H](OC)[C@H]2O[C@@](O)(C(=O)C(=O)N3CCCC[C@H]3C(=O)O[C@H](/C(C)=C/[C@@H]3CC[C@H](n4nnc5cc([N+](=O)[O-])ccc54)[C@H](OC)C3)[C@H](C)[C@@H](O)CC1=O)[C@H](C)C[C@@H]2OC [Example 9]
